Reference: patent publication US6387955B1, “Enhanced anti-angiogenic activity of permanently charged derivatives of steroid hormones” (Pharmos Corporation, priority 1997, dated 2002)

Assays:
[1] = system: MCF-7 tumor; experiment: TBB in the MCF-7 model, daily dosing (preliminary data); assay type: in vivo, mice; conditions: two weeks of daily dosing
Description: Preliminary data on TBB in the MCF-7 model have also been generated. […] Administration of TBB to MCF-7 tumor-bearing mice caused significant tumor regression that amounted to 32% over two weeks of daily dosing. TMI induced a 20% regression over a 25 day time course.

[2] = Tolerability in mice; assay type: in vivo
[3] = system: gelatinase A (MMP-2), 72 kDa; experiment: Collagenolytic activity by zymography in human fibrosarcoma cell supernatant, gelatinase A; assay type: cell-based
Description: (§1) HT-1080 cells (CCL 121), derived from a metastatic lesion of a human fibrosarcoma and primary bovine endothelial cells were obtained from the American Type Culture collection (Rockville, Md.). Cells were maintained under an atmosphere of 5% CO2, in Dulbecco's Minimal Essential Medium (DMEM) supplemented with 10% fetal calf serum, glutamine, vitamins, non-essential amino acids and antibiotics (Biological Industries, Kibbutz Beth HaEmek, Israel).
(§2) Sub-confluent cell cultures were incubated for 6 to 24 hours in serum-free DMEM, either with or without various concentrations of TMI or tamoxifen, and the resultant supernatant was analyzed for collagenolytic activity. The collagenolytic activity was determined using a gelatin-impregnated (1 mg/ml, Difco, Detroit Mich.) SDS-PAGE 8% gel, as previously described, with minor modifications. Briefly, the culture media samples were separated on the substrate-impregnated gels under non-reducing conditions, followed by 30 min of incubation of 2.5% Triton X-100 (BDH, UK). The gels were then incubated for 16 hours at 37° C. in 50 mM TRIS, 0.2 M NaCl, 5 mM CaCl2, 0.02% BRIJ 35 (w/v) at pH 7.6. […] The intensity of the stained bands was then determined using a computerized densitometer (Molecular Dynamics Model 300A). […]

[4] = system: gelatinase B (MMP-9), 92 kDa; experiment: Collagenolytic activity by zymography in human fibrosarcoma cell supernatant, gelatinase B; assay type: cell-based
Description: as §1, §2

[5] = system: MCF-7 tumors; experiment: Growth of MCF-7 tumors implanted in ventral fat pad of nude mice, tumor size by MRI; assay type: in vivo; conditions: for change in tumor size relative to day 0 (in words): slow-release pellet s.c. in flank, 25 day time course, MRI
Description: (§3) Female CD1-nu/nu athymic mice (6 weeks old) were obtained from the Weizmann Institute Department of Animal Services. MCF-7 cells, serially passed as described above, were detached from the culturing flasks with 0.03% EDTA in phosphate buffered saline (PBS) and washed several times in normal saline. Cells (10^7/innoculum) were then injected into the ventral fat pad at the level of the breast. Coincident with cell introduction, a slow-release pellet of estradiol (0.72 mg/pellet, 45-day release profile; Innovative Research, Sarasota, Fla.) was implanted subcutaneously in the flank of the animal. Mice were anesthetized with ketamine/Rompun (i.p.) for the surgical procedures. […] At this point, animals were randomized into four study groups. In the first, the estrogen pellet was removed and replaced with a slow-release TMI-laden pellet (6.3 mg, 45-day release) (n=5). In the second group, the estrogen pellet was removed and replaced with a tamoxifen pellet (n=7). The third group was treated with a blank (placebo) pellet (n=5), while the fourth group was reimplanted with an estradiol pellet (n=4). TMI and placebo-treated animals were imaged (under ketamine/Rompun anesthesia) either immediately before pellet exchange (day 0) or at day 3, 6, 12 and 25 after pellet exchange.
MRI images were recorded with a Bruker 4.7 (tesla)/30 Biospec spectrometer (Bruker Medizintechnik, Rheinstetten, Germany). 1H Spin-echo images were recorded at 200.12 MHz using a custom-made 4.5 cm rf coil with an image data matrix of 256×128 pixels. Pilot scans of the tumors were completed using a fast transverse multi-slice spin-echo sequence (giving T1-weighted spectra; inter-echo time (TE)=16 msec, recovery time (TR)=500 msec) followed by T2-weighted sequences in which axial slices perpendicular to the spine (i.e., a coronal orientation) were recorded. In the latter case, spin-echo images were obtained using a 4 cm field of view, 1 mm slice thickness, 1.2 mm slice-to-slice distance and a four-sequence average. The TE and TR were optimized to provide the best image contrast generating values of 80 and 3200 msec, respectively. This gave a total imaging time of approximately 30 min. […] Tumor size was calculated using a slice-to-slice reconstruction in which the slice surface area was obtained from histograms provided by the resident Bruker software package using the following relationship: […]
where XSA is the cross-sectional area of an internal slice, ES is the cross-sectional area of an edge slice, l is the slice thickness and ssd is the distance from the middle of one slice to the middle of the next. For image analysis, the average pixel intensity of viable portions of MCF-7 tumors was determined from a central tumor slice using histograms generated by the dedicated Bruker software package. […]

[6] = system: MCF-7 tumors; experiment: Tumor necrosis in MCF-7 tumors by T2-weighted MRI; assay type: in vivo, nude mice
Description: as §3
MRI images were recorded with a Bruker 4.7 (tesla)/30 Biospec spectrometer (Bruker Medizintechnik, Rheinstetten, Germany). 1H Spin-echo images were recorded at 200.12 MHz using a custom-made 4.5 cm rf coil with an image data matrix of 256×128 pixels. Pilot scans of the tumors were completed using a fast transverse multi-slice spin-echo sequence (giving T1-weighted spectra; inter-echo time (TE)=16 msec, recovery time (TR)=500 msec) followed by T2-weighted sequences in which axial slices perpendicular to the spine (i.e., a coronal orientation) were recorded. In the latter case, spin-echo images were obtained using a 4 cm field of view, 1 mm slice thickness, 1.2 mm slice-to-slice distance and a four-sequence average. The TE and TR were optimized to provide the best image contrast generating values of 80 and 3200 msec, respectively. This gave a total imaging time of approximately 30 min. Under the conditions reported, the in-plane resolution was 155×310 μm. Tumor size was calculated using a slice-to-slice reconstruction in which the slice surface area was obtained from histograms provided by the resident Bruker software package using the following relationship:
where XSA is the cross-sectional area of an internal slice, ES is the cross-sectional area of an edge slice, l is the slice thickness and ssd is the distance from the middle of one slice to the middle of the next. For image analysis, the average pixel intensity of viable portions of MCF-7 tumors was determined from a central tumor slice using histograms generated by the dedicated Bruker software package. […] Fibrosis was defined as those areas manifesting a decrease in pixel intensity of […].
In vivo tumor histology was assessed for TMI and placebo-treated tumors using T2-weighted MR images. […] At this time, the area of necrosis was two-fold higher than that observed on day 0 (increasing from an average of 20% to approximately 40%).

[7] = system: MCF-7 human breast cancer; conditions: MCF-7 human breast cancer implanted in nude mice; cited from earlier work
[8] = direct comparison, human fibrosarcoma cells
[9] = doses 0.5 to 20 μM, 6 and 24 hours, result at or up to 20 μM

Row | Compound | tumor regression [1] [%] | adverse effects ([2]; doses as high as 10 mg/Kg given daily over a two week time course) | tolerability ([2]; mice) | potency relative to TMI as inhibitor of 72 kDa (gelatinase A, MMP-2) collagenase [3, 8] | potency relative to TMI as inhibitor of 92 kDa (gelatinase B, MMP-9) collagenase [4, 8] | change in tumor size relative to day 0 (in words) [5] | tolerance of tumors to the drug and regrowth over time ([5]; MCF-7 tumors in nude mice) | maximum extent of necrosis ([6]; preliminary comparison of TMI and tamoxifen) [%] | onset of tumor necrosis ([6]; sampling day after pellet exchange) [days] | inhibition of gelatinase A (MMP-2) collagenolytic activity [3, 9] | inhibition of gelatinase B (MMP-9) collagenolytic activity [4, 9] | effect on tumor growth [7]
1 | Tamoxifen benzyl bromide [TBB] | 32 | no adverse effects | well tolerated | more potent than TMI | more potent than TMI |  |  |  |  |  |  | 
2 | C[C@]12CC[C@@H]3c4ccc(O)cc4CC[C@H]3[C@@H]1CC[C@@H]2O [estrogen, estradiol] |  |  |  |  |  | more than doubled in size |  |  |  |  |  | 
3 | CC/C(=C(\c1ccccc1)c1ccc(OCCN(C)C)cc1)c1ccccc1 [tamoxifen, reference compound] |  |  |  |  |  | tumoristatic | became tolerant to the effects of the drug and began to regrow over time | 50 | ≤ 3 | no significant inhibitory activity | no significant inhibitory activity | merely slowed tumor growth
